In ChEMBL document CHEMBL5113371, “Lipolytic enzymes inhibitors: A new way for antibacterial drugs discovery” (Eur J Med Chem, 2021):
Values after ≈ are worked out from the molar mass of the structure shown.

Legend:
[1] = system: Mycobacterium tuberculosis; experiment: Inhibition of Mycobacterium tuberculosis Lipy assessed as pomegranate oil TAG lipolysis at 20 times molar excess of inhibitor concentration related to 1 mole of enzyme incubated for 30 mins by microtitre plate assay
[2] = system: Mycobacterium tuberculosis; experiment: Inhibition of Mycobacterium tuberculosis Lipy incubated for 30 mins by UV spectrophotometric analysis
[3] = system: Mycobacterium tuberculosis; experiment: Inhibition of Mycobacterium tuberculosis Lipy assessed as pomegranate oil TAG lipolysis at 4 times molar excess of inhibitor concentration related to 1 mole of enzyme incubated for 30 mins by microtitre plate assay
[4] = system: RAW264.7; experiment: Cytotoxicity against mouse RAW264.7 cells; type: functional
[5] = (§1) Antibacterial activity against Mycobacterium Mycobacterium abscessus CIP 104536T infected in mouse RAW264.7 cells assessed as […] incubated for 4 to 5 days; type: functional; settings: Mycobacteroides abscessus, time 4-5 day
[6] = system: Mycobacteroides abscessus; experiment: Antibacterial activity against Mycobacterium abscessus CIP 104536T smooth morphotype incubated for 1 to 14 days; type: functional; settings: time 1-14 day
[7] = system: Mycobacteroides abscessus; experiment: Antibacterial activity against Mycobacterium abscessus CIP 104536T rough morphotype incubated for 1 to 14 days; type: functional; settings: time 1-14 day
[8] = Inhibition of Mycobacterium tuberculosis Cut6
[9] = Antibacterial activity against Mycobacterium Mycobacterium abscessus CIP 104536T infected in mouse RAW264.7 cells assessed as bacterial viability at 30 uM incubated for 4 to 5 days relative to control; type: functional, Mycobacteroides abscessus; settings: time 4-5 day
[10] = system: Mycobacterium; experiment: Antibacterial activity against Mycobacterium by REMA assay; type: functional
[11] = system: RAW264.7; experiment: as §1; type: functional; settings: Mycobacteroides abscessus, time 4-5 day
[12] = system: Mycobacterium tuberculosis; experiment: Antibacterial activity against Mycobacterium tuberculosis; type: functional
[13] = system: Mycobacterium tuberculosis; experiment: Antibacterial activity against Mycobacterium tuberculosis incubated for 2 to 3 weeks; type: functional; settings: time 2-3 weeks

Row | Structure (SMILES) | inhibition [1] [%] | I50 [2] [molar excess] | inhibition [3] [%] | CC50 [4] [µM] | MIC50 [6] [µM] | MIC50 [7] [µM] | further results
1 | CCCCCCOc1nn(-c2cccc(Oc3ccccc3)c2)c(=O)o1 | 76.5 | 3.3 | 39.9 |  |  |  | 
2 | CCCCCCCCCCCCCCCCO[P@]1(=O)OC[C@H]2COC(=O)C2=C(C)O1 |  |  |  | > 100 |  |  | 
3 | CO[C@H]1/C=C/O[C@@]2(C)Oc3c(C)c(O)c4c(O)c(c(/C=N/N5CCN(C)CC5)c(O)c4c3C2=O)NC(=O)/C(C)=C\C=C\[C@H](C)[C@H](O)[C@@H](C)[C@@H](O)[C@@H](C)[C@H](OC(C)=O)[C@@H]1C [RIFAMPIN] |  |  |  | 24 |  |  | 
4 | CCCCCCCCCCCC[C@@H]1CC[P@@](=O)(OC)OC(C)=C1C(=O)OC |  |  |  | > 100 | > 100 | > 100 | MIC50 [5]: 7.9 µM (≈ 3.18 µg/mL)
5 | CCCCCCCCCCC[C@@H](C[C@@H]1OC(=O)[C@H]1CCCCCC)OC(=O)[C@H]1CCCN1C=O |  |  |  |  |  |  | IC50 [8]: 0.2 µM
6 | CCCCCCCCCCC[C@@H](C[C@@H]1OC(=O)[C@H]1CCCCCC)OC(=O)[C@H](CC(C)C)NC=O [ORLISTAT] | 87.6 | 7.1 | 26.8 |  |  |  | IC50 [8]: 3.8 µM
7 | COc1nn(-c2ccccc2)c(=O)o1 | 81.8 | 10.9 | 34.4 |  | > 200 | > 200 | MIC50 [5]: 36.5 µM (≈ 7.01 µg/mL)
8 | CC(C)COc1nn(-c2ccc(Oc3ccccc3)cc2)c(=O)o1 | 41.6 | > 40 | 33.8 | > 100 | 33 (≈ 10.8 µg/mL) | 53.2 (≈ 17.4 µg/mL) | MIC50 [5]: < 30 µM; Activity [9]: 59%
9 | C[C@@H](O)[C@H]1C(=O)N2C(C(=O)O)=C(SCCNC=N)C[C@H]12 [IMIPENEM ANHYDROUS] |  |  |  |  | 11.3 (≈ 3.38 µg/mL) | 29.9 (≈ 8.95 µg/mL) | MIC50 [5]: 28.3 µM (≈ 8.47 µg/mL)
10 | CCCCCCCCCCCCCCCCOP1(=O)OCCC(C(=O)OC)=C(C)O1 (stereo unspecified) |  |  |  | > 100 | 12.7 (≈ 5.67 µg/mL) | 0.37 (≈ 0.165 µg/mL) | MIC [10]: 2 µg/mL (≈ 4.48 µM); MIC50 [11]: NE
11 | NCC[C@H](O)C(=O)N[C@@H]1C[C@H](N)[C@@H](O[C@H]2O[C@H](CN)[C@@H](O)[C@H](O)[C@H]2O)[C@H](O)[C@H]1O[C@H]1O[C@H](CO)[C@@H](O)[C@H](N)[C@H]1O [AMIKACIN] |  |  |  |  | 3.9 (≈ 2.28 µg/mL) | 7.4 (≈ 4.33 µg/mL) | 
12 | CCCCCCCCCCCCCCCCO[P@]1(=O)OC[C@@H]2COC(=O)C2=C(C)O1 |  |  |  | > 100 |  |  | 
13 | CC(C)COc1nn(-c2cccc(Oc3ccccc3)c2)c(=O)o1 | 49.4 | 3.9 | 37.4 |  |  |  | 
14 | CC(C)COc1nn(-c2ccccc2)c(=O)o1 | 47.9 | 9.2 | 31.6 | > 100 |  |  | 
15 | CCCCOc1nn(-c2cccc(Oc3ccccc3)c2)c(=O)o1 | 63.7 | > 40 | 15.6 |  |  |  | 
16 | CCCCC[C@H]1CC[P@@](=O)(OC)OC(C)=C1C(=O)OC |  |  |  | > 100 |  |  | 
17 | CCCCCC(CC)Oc1nn(-c2cccc(Oc3ccccc3)c2)c(=O)o1 (stereo unspecified) | 94.8 | 0.73 | 89.6 |  |  |  | 
18 | CCCCCCCCCCC[C@@H](C[C@@H]1OC(=O)[C@H]1CCCCCC)OC(=O)[C@H]1CCCN1C(C)=O |  |  |  |  |  |  | IC50 [8]: 0.2 µM
19 | CCCCCCOc1nn(-c2ccc(Oc3ccccc3)cc2)c(=O)o1 | 77.2 | 2.9 | 38.7 | > 100 |  |  | 
20 | C=CCCCCCCC[C@H]1C(=O)O[C@@H]1CCCCCNC(=O)c1ccc(N(C)C)cc1 |  |  |  |  |  |  | INH [12]: 1.6 µM

Row | Structure (SMILES) | inhibition [1] [%] | I50 [2] [molar excess] | inhibition [3] [%] | CC50 [4] [µM] | MIC50 [6] [µM] | MIC50 [7] [µM] | further results
21 | CCOc1nn(-c2cccc(Oc3ccccc3)c2)c(=O)o1 | 53.8 | 6.5 | 21.7 |  |  |  | 
22 | NNC(=O)c1ccncc1 [ISONIAZID] |  |  |  | > 150 |  |  | 
23 | CCCCCCCCCCC1=C(C(=O)OC)CCOP(=O)(OC)O1 (stereo unspecified) |  |  |  |  | 85 (≈ 30.8 µg/mL) | 13.9 (≈ 5.04 µg/mL) | MIC50 [11]: NE
24 | CCCCCCCCCCC[C@@H](C[C@@H]1OC(=O)[C@H]1CCCCCC)OC(=O)[C@@H]1CCCN1C=O |  |  |  |  |  |  | IC50 [8]: 0.2 µM
25 | CCCCCCCCOc1nn(-c2cccc(Oc3ccccc3)c2)c(=O)o1 | 86.6 | 0.71 | 83.2 |  |  |  | 
26 | CCCCCCCCCCCCCCCCC1=C(C(=O)OC)CCOP(=O)(OC)O1 (stereo unspecified) |  |  |  |  | 60 (≈ 26.8 µg/mL) | 6.9 (≈ 3.08 µg/mL) | MIC50 [11]: NE
27 | CCCCCCCCCCCCOc1nn(-c2cccc(Oc3ccccc3)c2)c(=O)o1 | 90.4 | 0.77 | 88.7 |  |  |  | 
28 | O=c1oc(OCCOCc2ccccc2)nn1-c1ccc(Oc2ccccc2)cc1 | 98.4 | 0.59 | 97 | > 100 |  |  | 
29 | COc1nn(-c2cccc(Oc3ccccc3)c2)c(=O)o1 | 85.9 | 2.4 | 63.6 |  |  |  | MIC [13]: 50 µM (≈ 14.2 µg/mL)
30 | COCCOc1nn(-c2cccc(Oc3ccccc3)c2)c(=O)o1 | 93.7 | 0.69 | 92.4 |  |  |  | 
31 | O=c1oc(OCCOCc2ccccc2)nn1-c1cccc(Oc2ccccc2)c1 | 90.2 | 0.72 | 88 |  |  |  | 
32 | COc1nn(-c2ccc(Oc3ccccc3)cc2)c(=O)o1 | 79.4 | 0.93 | 60.8 |  | 88.2 (≈ 25.1 µg/mL) | > 200 | MIC50 [5]: 75.2 µM (≈ 21.4 µg/mL)
33 | CCCCCCCCCCOc1nn(-c2cccc(Oc3ccccc3)c2)c(=O)o1 | 94.2 | 0.67 | 91.5 |  |  |  | 
34 | CCCCCCCCCCCC[C@H]1CC[P@@](=O)(OC)OC(C)=C1C(=O)OC |  |  |  | > 20 | > 100 | > 100 | MIC50 [5]: 2 µM (≈ 0.805 µg/mL)
35 | CCCCCCCCCCC[C@@H](C[C@@H]1OC(=O)[C@H]1CCCCCC)OC(=O)[C@@H]1CSCN1C(C)=O |  |  |  |  |  |  | IC50 [8]: 0.2 µM
36 | O=c1oc(OCCOCc2ccccc2)nn1-c1ccccc1 | 92.2 | 0.61 | 89 | > 100 |  |  | 
37 | CCCCCCCCCCC[C@@H](C[C@@H]1OC(=O)[C@H]1CCCCCC)OC(=O)[C@@H]1CCCN1C(C)=O |  |  |  |  |  |  | IC50 [8]: 0.2 µM
38 | CCCCCCCCCC[C@H]1CC[P@@](=O)(OC)OC(C)=C1C(=O)OC |  |  |  | > 100 | > 100 | > 100 | MIC50 [5]: 65.3 µM (≈ 24.5 µg/mL)
39 | CCCCCCOc1nn(-c2ccccc2)c(=O)o1 | 38.8 | > 40 | 35 | > 100 |  |  | 
40 | CCCCCCCCCC[C@@H]1CC[P@@](=O)(OC)OC(C)=C1C(=O)OC |  |  |  | > 100 | > 100 | > 100 | MIC50 [5]: 29.3 µM (≈ 11 µg/mL)
